Laboratory results reported in ChEMBL document CHEMBL3045793, “The synthesis, anti-inflammatory and antimicrobial activity evaluation of novel thioanalogs of 3,4-dihydrothiopyrimidin-2(1H)-one derivatives of N-aryl urea” (2012).
Values after ≈ are worked out from the molar mass of the structure shown. Active and inactive are the calls of the source. The rule behind the calls is not given here.

Columns and labels:
THP-1 [1] = assay: Anti-inflammatory activity in Homo sapiens (human) THP1 cells assessed as inhibition of LPS-induced IL-6 production preincubated at 10 uM for 30 min before LPS treatment measured after 24 hr by ELISA; format: functional
Aspergillus flavus [2] = assay: Antifungal activity against Aspergillus flavus by agar well diffusion method; format: functional
Aspergillus niger [3] = assay: Antifungal activity against Aspergillus niger by agar well diffusion method; format: functional
Candida albicans [4] = assay: Antifungal activity against Candida albicans by agar well diffusion method; format: functional
Salmonella typhimurium [5] = assay: Antibacterial activity against Salmonella enterica subsp. enterica serovar Typhimurium by agar well diffusion method; format: functional
Fusarium solani [6] = assay: Antifungal activity against Fusarium solani by agar well diffusion method; format: functional
Escherichia coli [7] = assay: Antibacterial activity against Escherichia coli by agar well diffusion method; format: functional
Bacillus subtilis [8] = assay: Antibacterial activity against Bacillus subtilis up to 200 ug/ml by agar well diffusion method; format: functional, organism-based
Staphylococcus aureus = assay: Antibacterial activity against Staphylococcus aureus by agar well diffusion method; format: functional
THP-1 [9] = assay: Anti-inflammatory activity in Homo sapiens (human) THP1 cells assessed as inhibition of LPS-induced TNF-alpha production preincubated at 10 uM for 30 min before LPS treatment measured after 24 hr by ELISA; format: functional
Bacillus subtilis [10] = assay: Antibacterial activity against Bacillus subtilis by agar well diffusion method; format: functional
Aspergillus niger [11] = assay: Antifungal activity against Aspergillus niger up to 200 ug/ml by agar well diffusion method; format: functional, organism-based
Salmonella typhimurium [12] = assay: Antibacterial activity against Salmonella enterica subsp. enterica serovar Typhimurium up to 200 ug/ml by agar well diffusion method; format: functional, organism-based
Candida albicans [13] = assay: Antifungal activity against Candida albicans up to 200 ug/ml by agar well diffusion method; format: functional, organism-based
Escherichia coli [14] = assay: Antibacterial activity against Escherichia coli up to 200 ug/ml by agar well diffusion method; format: functional, organism-based
Aspergillus flavus [15] = assay: Antifungal activity against Aspergillus flavus up to 200 ug/ml by agar well diffusion method; format: functional, organism-based
Fusarium solani [16] = assay: Antifungal activity against Fusarium solani up to 200 ug/ml by agar well diffusion method; format: functional, organism-based
THP-1 [17] = assay: Anti-inflammatory activity in Homo sapiens (human) THP1 cells assessed as inhibition of LPS-induced TNF-alpha production preincubated at 1 uM for 30 min before LPS treatment measured after 24 hr by ELISA; format: functional
THP-1 [18] = assay: Anti-inflammatory activity in Homo sapiens (human) THP1 cells assessed as inhibition of LPS-induced IL-6 production preincubated at 1 uM for 30 min before LPS treatment measured after 24 hr by ELISA; format: functional

SMILES | MIC (Aspergillus flavus [2]) | MIC (Aspergillus niger [3]) | MIC (Candida albicans [4]) | MIC (Salmonella typhimurium [5]) | MIC (Fusarium solani [6]) | MIC (Escherichia coli [7]) | MIC (Staphylococcus aureus) | MIC (Bacillus subtilis [10]) | inhibition at 10 µM (THP-1 [1]) | Activity (Bacillus subtilis [8]) | inhibition at 10 µM (THP-1 [9]) | Activity (Aspergillus niger [11]) | Activity (Salmonella typhimurium [12]) | Activity (Candida albicans [13]) | Activity (Escherichia coli [14]) | Activity (Aspergillus flavus [15]) | Activity (Fusarium solani [16]) | inhibition at 1 µM (THP-1 [17]) | inhibition at 1 µM (THP-1 [18])
CCOC(=O)C1=C(C)NC(=S)NC1c1ccc(NC(=S)Nc2c(C)cccc2F)cc1 (configuration not stated) | 60 µg/mL (≈ 131 µM) | 55 µg/mL (≈ 120 µM) | 50 µg/mL (≈ 109 µM) | 90 µg/mL (≈ 196 µM) | 65 µg/mL (≈ 142 µM) | 70 µg/mL (≈ 153 µM) | 90 µg/mL (≈ 196 µM) |  | 16% | inactive | 0% |  |  |  |  |  |  |  | 
CCOC(=O)C1=C(C)NC(=S)NC1c1ccc(NC(=S)Nc2ccc(C(C)C)cc2)cc1 (configuration not stated) | 95 µg/mL (≈ 203 µM) | 80 µg/mL (≈ 171 µM) | 80 µg/mL (≈ 171 µM) | 90 µg/mL (≈ 192 µM) | 70 µg/mL (≈ 149 µM) | 90 µg/mL (≈ 192 µM) | 70 µg/mL (≈ 149 µM) | 55 µg/mL (≈ 117 µM) | 90% |  | 61% |  |  |  |  |  |  |  | 
CCOC(=O)C1=C(C)NC(=S)NC1c1ccc(NC(=S)Nc2ccc(F)c(Cl)c2)cc1 (configuration not stated) |  |  |  |  | 95 µg/mL (≈ 198 µM) |  | 80 µg/mL (≈ 167 µM) |  | 58% | inactive | 0% | inactive | inactive | inactive | inactive | inactive |  |  | 
CCOC(=O)C1=C(C)NC(=S)NC1c1ccc(NC(=S)Nc2cc(C(F)(F)F)ccc2Cl)cc1 (configuration not stated) |  | 90 µg/mL (≈ 170 µM) | 85 µg/mL (≈ 161 µM) | 90 µg/mL (≈ 170 µM) |  | 80 µg/mL (≈ 151 µM) | 90 µg/mL (≈ 170 µM) | 85 µg/mL (≈ 161 µM) | 96% |  | 78% |  |  |  |  | inactive | inactive |  | 
C[C@@H]1C[C@H]2[C@@H]3CCC4=CC(=O)C=C[C@]4(C)[C@@]3(F)[C@@H](O)C[C@]2(C)[C@@]1(O)C(=O)CO [DEXAMETHASONE] |  |  |  |  |  |  |  |  |  |  |  |  |  |  |  |  |  | 71% | 84%

Second part, led by results:

MIC (Aspergillus flavus [2]) | MIC (Aspergillus niger [3]) | MIC (Candida albicans [4]) | MIC (Salmonella typhimurium [5]) | MIC (Fusarium solani [6]) | MIC (Escherichia coli [7]) | MIC (Staphylococcus aureus) | MIC (Bacillus subtilis [10]) | SMILES | inhibition at 10 µM (THP-1 [1]) | Activity (Bacillus subtilis [8]) | inhibition at 10 µM (THP-1 [9]) | Activity (Aspergillus niger [11]) | Activity (Salmonella typhimurium [12]) | Activity (Candida albicans [13]) | Activity (Escherichia coli [14]) | Activity (Aspergillus flavus [15]) | Activity (Fusarium solani [16]) | inhibition at 1 µM (THP-1 [17]) | inhibition at 1 µM (THP-1 [18])
35 µg/mL (≈ 69.6 µM) | 60 µg/mL (≈ 119 µM) | 40 µg/mL (≈ 79.6 µM) | 65 µg/mL (≈ 129 µM) | 45 µg/mL (≈ 89.5 µM) | 85 µg/mL (≈ 169 µM) | 55 µg/mL (≈ 109 µM) | 60 µg/mL (≈ 119 µM) | CCOC(=O)C1=C(C)NC(=S)NC1c1ccc(NC(=O)Nc2ccccc2Oc2ccccc2)cc1 (configuration not stated) | 42% |  | 0% |  |  |  |  |  |  |  | 
65 µg/mL (≈ 202 µM) | 65 µg/mL (≈ 202 µM) | 30 µg/mL (≈ 93.4 µM) | 30 µg/mL (≈ 93.4 µM) | 75 µg/mL (≈ 233 µM) | 45 µg/mL (≈ 140 µM) | 40 µg/mL (≈ 124 µM) | 55 µg/mL (≈ 171 µM) | CCOC(=O)C1=C(C)NC(=S)NC1c1ccc([N+](=O)[O-])cc1 (configuration not stated) | 3% |  | 0% |  |  |  |  |  |  |  | 
15 µg/mL (≈ 33.7 µM) | 10 µg/mL (≈ 22.5 µM) | 10 µg/mL (≈ 22.5 µM) | 15 µg/mL (≈ 33.7 µM) | 15 µg/mL (≈ 33.7 µM) | 10 µg/mL (≈ 22.5 µM) | 10 µg/mL (≈ 22.5 µM) | 25 µg/mL (≈ 56.2 µM) | CCOC(=O)C1=C(C)NC(=S)NC1c1ccc(NC(=S)Nc2ccccc2F)cc1 (configuration not stated) | 22% |  | 0% |  |  |  |  |  |  |  | 
 | 85 µg/mL (≈ 184 µM) |  | 90 µg/mL (≈ 195 µM) |  |  | 65 µg/mL (≈ 141 µM) | 90 µg/mL (≈ 195 µM) | CCOC(=O)C1=C(C)NC(=S)NC1c1ccc(NC(=S)Nc2cc(F)cc(F)c2)cc1 (configuration not stated) | 82% |  | 55% |  |  | inactive | inactive | inactive | inactive |  | 
80 µg/mL (≈ 156 µM) | 30 µg/mL (≈ 58.5 µM) | 55 µg/mL (≈ 107 µM) | 45 µg/mL (≈ 87.8 µM) | 45 µg/mL (≈ 87.8 µM) | 40 µg/mL (≈ 78 µM) | 35 µg/mL (≈ 68.3 µM) | 55 µg/mL (≈ 107 µM) | CCOC(=O)C1=C(C)NC(=S)NC1c1ccc(NC(=S)Nc2c(F)cccc2C(F)(F)F)cc1 (configuration not stated) | 30% |  | 0% |  |  |  |  |  |  |  | 
15 µg/mL (≈ 30.3 µM) | 10 µg/mL (≈ 20.2 µM) | 10 µg/mL (≈ 20.2 µM) | 30 µg/mL (≈ 60.7 µM) | 10 µg/mL (≈ 20.2 µM) | 10 µg/mL (≈ 20.2 µM) | 10 µg/mL (≈ 20.2 µM) | 15 µg/mL (≈ 30.3 µM) | CCOC(=O)C1=C(C)NC(=S)NC1c1ccc(NC(=S)Nc2ccc(C(F)(F)F)cc2)cc1 (configuration not stated) | 48% |  | 8% |  |  |  |  |  |  |  | 
20 µg/mL (≈ 40.4 µM) | 50 µg/mL (≈ 101 µM) | 20 µg/mL (≈ 40.4 µM) | 40 µg/mL (≈ 80.9 µM) | 20 µg/mL (≈ 40.4 µM) | 15 µg/mL (≈ 30.3 µM) | 10 µg/mL (≈ 20.2 µM) | 10 µg/mL (≈ 20.2 µM) | CCOC(=O)C1=C(C)NC(=S)NC1c1ccc(NC(=S)Nc2ccccc2C(F)(F)F)cc1 (configuration not stated) | 18% |  | 8% |  |  |  |  |  |  |  | 
80 µg/mL (≈ 275 µM) | 55 µg/mL (≈ 189 µM) | 55 µg/mL (≈ 189 µM) | 45 µg/mL (≈ 154 µM) | 35 µg/mL (≈ 120 µM) | 40 µg/mL (≈ 137 µM) | 60 µg/mL (≈ 206 µM) | 85 µg/mL (≈ 292 µM) | CCOC(=O)C1=C(C)NC(=S)NC1c1ccc(N)cc1 (configuration not stated) | 3% |  | 0% |  |  |  |  |  |  |  | 
